From PubChem BioAssay AID248 (DTP/NCI, 2004)
Several values for one entry are separate records, joined by “and”; a condition that tells them apart may be missing. Equal values may be shown once. Inconclusive results and toxic doses are left out. Cut-off read from the data, not from the text of the source: active = T/C of 150% or more; inactive = T/C below 125%.

Test system: L1210 leukemia ip in BDF1 mice, survival T/C
Assay: NCI In Vivo Anticancer Drug Screen. Data for tumor model L1210 Leukemia (intraperitoneal) in B6D2F1 (BDF1) mice
Settings: endpoint: mean survival time, higher = longer survival
Method in brief: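 Tumor cells were implanted, animals were treated, and survival was followed. The result divides the treated measurement by the vehicle-control measurement.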

[1] = dose: 100.0 mg/kg/injection, schedule: Q04DX003 (ip), vehicle: saline
[2] = dose: 200.0 mg/kg/injection, schedule: Q04DX003 (ip), vehicle: saline
[3] = dose: 100.0 mg/kg/injection, schedule: Q01DX009 (ip), vehicle: saline
[4] = dose: 200.0 mg/kg/injection, schedule: Q01DX009 (ip), vehicle: saline
[5] = dose: 100.0 mg/kg/injection, schedule: Q01DX009 (ip), vehicle: Klucel (hydroxypropylcellulose) (HPC)
[6] = dose: 200.0 mg/kg/injection, schedule: Q01DX009 (ip), vehicle: Klucel (hydroxypropylcellulose) (HPC)

Measured: T/C

O=[N+]([O-])c1ccc(C=Nc2ccc(Cc3ccncc3)cc2)cc1
inactive: dose: 100.0 mg/kg/injection, schedule: Q01DX009 (ip), vehicle: carboxymethylcellulose (CMC) 93 % of control and 100 % of control | dose: 100.0 mg/kg/injection, schedule: Q04DX002 (ip), vehicle: carboxymethylcellulose (CMC) 104 % of control | dose: 100.0 mg/kg/injection, schedule: Q04DX003 (ip), vehicle: carboxymethylcellulose (CMC) 101 % of control | dose: 200.0 mg/kg/injection, schedule: Q01DX009 (ip), vehicle: carboxymethylcellulose (CMC) 97 % of control and 98 % of control | dose: 200.0 mg/kg/injection, schedule: Q04DX002 (ip), vehicle: carboxymethylcellulose (CMC) 98 % of control | dose: 200.0 mg/kg/injection, schedule: Q04DX003 (ip), vehicle: carboxymethylcellulose (CMC) 94 % of control | dose: 400.0 mg/kg/injection, schedule: Q01DX009 (ip), vehicle: carboxymethylcellulose (CMC) 95 % of control and 91 % of control | dose: 400.0 mg/kg/injection, schedule: Q04DX002 (ip), vehicle: carboxymethylcellulose (CMC) 93 % of control | dose: 400.0 mg/kg/injection, schedule: Q04DX003 (ip), vehicle: carboxymethylcellulose (CMC) 100 % of control

CCCCCCC1CC2CCCCC2CC1CCCC (stereo not given)
inactive: dose: 100.0 mg/kg/injection, schedule: Q01DX001 (ip), vehicle: carboxymethylcellulose (CMC) 96 % of control | dose: 200.0 mg/kg/injection, schedule: Q01DX001 (ip), vehicle: carboxymethylcellulose (CMC) 100 % of control | dose: 400.0 mg/kg/injection, schedule: Q01DX001 (ip), vehicle: carboxymethylcellulose (CMC) 94 % of control

C=C(Br)CNC(=O)OCCCC
inactive: dose: 12.5 mg/kg/injection, schedule: Q01DX009 (ip), vehicle: saline with Tween-80 94 % of control | dose: 25.0 mg/kg/injection, schedule: Q01DX009 (ip), vehicle: saline with Tween-80 100 % of control | dose: 50.0 mg/kg/injection, schedule: Q01DX009 (ip), vehicle: saline with Tween-80 98 % of control | [1] 94 % of control | [2] 102 % of control

C/C=C/C=C(\CC)C(=O)OCC
inactive: dose: 50.0 mg/kg/injection, schedule: Q01DX009 (ip), vehicle: saline 115 % of control | dose: 100.0 mg/kg/injection, schedule: Q01DX009 (ip), vehicle: saline with Tween-80 98 % of control | [3] 99 % of control | dose: 200.0 mg/kg/injection, schedule: Q01DX009 (ip), vehicle: saline with Tween-80 90 % of control | [4] 96 % of control | dose: 400.0 mg/kg/injection, schedule: Q01DX009 (ip), vehicle: saline with Tween-80 101 % of control

C=CCn1c(-c2cccs2)nc2c(Cl)ncnc21
inactive: dose: 24.0 mg/kg/injection, schedule: Q01DX009 (ip), vehicle: steriod suspending solution 88 % of control | dose: 39.0 mg/kg/injection, schedule: Q01DX009 (ip), vehicle: steriod suspending solution 90 % of control

CCCCSC(C)=N
inactive: dose: 100.0 mg/kg/injection, schedule: Q04DX002 (ip), vehicle: saline 97 % of control | dose: 200.0 mg/kg/injection, schedule: Q04DX002 (ip), vehicle: saline 105 % of control | dose: 400.0 mg/kg/injection, schedule: Q04DX002 (ip), vehicle: saline 97 % of control

Cc1o[nH]c(=O)c1C
inactive: dose: 100.0 mg/kg/injection, schedule: Q04DX003 (ip), vehicle: saline with Tween-80 103 % of control | dose: 200.0 mg/kg/injection, schedule: Q04DX003 (ip), vehicle: saline with Tween-80 94 % of control | dose: 400.0 mg/kg/injection, schedule: Q04DX003 (ip), vehicle: saline with Tween-80 103 % of control

Brc1cscc1Cc1cscc1Br
inactive: dose: 100.0 mg/kg/injection, schedule: Q01DX001 (ip), vehicle: saline with Tween-80 91 % of control | dose: 200.0 mg/kg/injection, schedule: Q01DX001 (ip), vehicle: saline with Tween-80 97 % of control | dose: 400.0 mg/kg/injection, schedule: Q01DX001 (ip), vehicle: saline with Tween-80 94 % of control

CC1(C)C(=O)C2CCC1C2 (stereo not given)
inactive: dose: 100.0 mg/kg/injection, schedule: Q04DX002 (ip), vehicle: Klucel (hydroxypropylcellulose) (HPC) 90 % of control | dose: 200.0 mg/kg/injection, schedule: Q04DX002 (ip), vehicle: Klucel (hydroxypropylcellulose) (HPC) 87 % of control | dose: 400.0 mg/kg/injection, schedule: Q04DX002 (ip), vehicle: Klucel (hydroxypropylcellulose) (HPC) 103 % of control

NC(=O)C[n+]1cccc(C(=O)Nc2ccccc2)c1
inactive: [1] 97 % of control | [2] 101 % of control | dose: 400.0 mg/kg/injection, schedule: Q04DX003 (ip), vehicle: saline 87 % of control

NC(CSS(=O)(=O)O)=NCCCCCN=C(N)CSS(=O)(=O)O
inactive: dose: 12.5 mg/kg/injection, schedule: Q04DX003 (ip), vehicle: saline with Tween-80 108 % of control | dose: 25.0 mg/kg/injection, schedule: Q04DX003 (ip), vehicle: saline with Tween-80 102 % of control | dose: 50.0 mg/kg/injection, schedule: Q04DX003 (ip), vehicle: saline with Tween-80 96 % of control

CC(=C/C(C)(C)C)/C(C)=C/C(C)(C)C
inactive: [3] 88 % of control

CC(=O)OC1=C(C)CCC1=O
inactive: dose: 100.0 mg/kg/injection, schedule: Q01DX001 (ip), vehicle: saline 89 % of control | dose: 200.0 mg/kg/injection, schedule: Q01DX001 (ip), vehicle: saline 95 % of control | dose: 400.0 mg/kg/injection, schedule: Q01DX001 (ip), vehicle: saline 89 % of control

NCCS(=O)CCN
inactive: [3] 100 % of control | [4] 107 % of control | dose: 400.0 mg/kg/injection, schedule: Q01DX009 (ip), vehicle: saline 94 % of control

Nc1cc(C(=O)Nc2cccc(C3=NCCCN3)c2)ccc1C(=O)Nc1cccc(C2=NCCCN2)c1
inactive: dose: 0.17 mg/kg/injection, schedule: Q01DX Z (ip), vehicle: water 100 % of control | dose: 0.34 mg/kg/injection, schedule: Q01DX Z (ip), vehicle: water 90 % of control | dose: 0.68 mg/kg/injection, schedule: Q01DX Z (ip), vehicle: water 88 % of control

Clc1ccc(C2=NC3=CC(Cl)C=CC3=CC2C2CO2)cc1 (stereo not given)
inactive: [5] 96 % of control | dose: 100.0 mg/kg/injection, schedule: Q04DX003 (ip), vehicle: Klucel (hydroxypropylcellulose) (HPC) 94 % of control | [6] 98 % of control | dose: 200.0 mg/kg/injection, schedule: Q04DX003 (ip), vehicle: Klucel (hydroxypropylcellulose) (HPC) 94 % of control | dose: 400.0 mg/kg/injection, schedule: Q04DX003 (ip), vehicle: Klucel (hydroxypropylcellulose) (HPC) 98 % of control

COc1ccc(C(=O)N/N=C/c2ccccc2OC)cc1
inactive: [5] 92 % of control | [6] 100 % of control | dose: 400.0 mg/kg/injection, schedule: Q01DX009 (ip), vehicle: Klucel (hydroxypropylcellulose) (HPC) 96 % of control

NC(CC[Se]CC(N)C(=O)O)C(=O)O (stereo not given)
inactive: dose: 0.5 mg/kg/injection, schedule: Q01DX009 (ip), vehicle: acetone 110 % of control | dose: 1.0 mg/kg/injection, schedule: Q01DX009 (ip), vehicle: acetone 103 % of control | dose: 2.0 mg/kg/injection, schedule: Q01DX009 (ip), vehicle: acetone 95 % of control | dose: 4.0 mg/kg/injection, schedule: Q01DX009 (ip), vehicle: acetone 108 % of control

CC(C)(C)C1CCC(=O)C(Cl)C1 (stereo not given)
inactive: [5] 94 % of control | dose: 100.0 mg/kg/injection, schedule: Q04DX003 (ip), vehicle: alcohol 94 % of control | [6] 95 % of control | dose: 200.0 mg/kg/injection, schedule: Q04DX003 (ip), vehicle: alcohol 92 % of control | dose: 400.0 mg/kg/injection, schedule: Q04DX003 (ip), vehicle: alcohol 87 % of control
